According to patent US20100092480A1, “MODULATORS OF PROTEIN PHOSPHATASE 2A” (priority 2006, published 2010):
pIC50: −log10 of the molar value. Starred links: 1 amine or outer side, 2 acyl side, 3 side chain; linkers in the order of their positions; H or OH if unused. Positions of bridges follow the written chain, without caps; N, C: chain ends. Non-standard residues stand in square brackets, D forms with d. Residues, ends and D or L forms follow the SMILES beside them. Adda = CO[C@@H](Cc1ccccc1)[C@@H](C)/C=C(C)/C=C/[C@H](N[*:1])[C@H](C)C(=O)[*:2]; dAsp(3S-Me) = C[C@H](C(=O)[*:3])[C@@H](N[*:1])C(=O)[*:2]; d(γGlu) = O=C(O)[C@@H](CCC(=O)[*:2])N[*:1]; NMeDha = C=C(NC)C(=O)O

What was measured:
[1] = target: PP2A (Homo sapiens, UniProt P67775); details: cited from earlier work
[2] = target: PP2A core (Homo sapiens, UniProt P67775); format: biochemical; details: stoichiometric amounts of inhibitor
Chain of PP2A core (P67775 whole entry): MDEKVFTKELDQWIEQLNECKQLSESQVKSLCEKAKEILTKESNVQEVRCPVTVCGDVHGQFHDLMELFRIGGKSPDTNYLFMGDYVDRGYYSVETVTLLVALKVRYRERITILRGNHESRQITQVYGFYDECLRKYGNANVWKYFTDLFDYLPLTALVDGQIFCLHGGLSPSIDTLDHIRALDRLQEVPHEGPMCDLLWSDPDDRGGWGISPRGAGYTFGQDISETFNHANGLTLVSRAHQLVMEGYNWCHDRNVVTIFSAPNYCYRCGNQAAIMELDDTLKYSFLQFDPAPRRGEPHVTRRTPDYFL
Chain of PP2A core (P30153 whole entry, further chain): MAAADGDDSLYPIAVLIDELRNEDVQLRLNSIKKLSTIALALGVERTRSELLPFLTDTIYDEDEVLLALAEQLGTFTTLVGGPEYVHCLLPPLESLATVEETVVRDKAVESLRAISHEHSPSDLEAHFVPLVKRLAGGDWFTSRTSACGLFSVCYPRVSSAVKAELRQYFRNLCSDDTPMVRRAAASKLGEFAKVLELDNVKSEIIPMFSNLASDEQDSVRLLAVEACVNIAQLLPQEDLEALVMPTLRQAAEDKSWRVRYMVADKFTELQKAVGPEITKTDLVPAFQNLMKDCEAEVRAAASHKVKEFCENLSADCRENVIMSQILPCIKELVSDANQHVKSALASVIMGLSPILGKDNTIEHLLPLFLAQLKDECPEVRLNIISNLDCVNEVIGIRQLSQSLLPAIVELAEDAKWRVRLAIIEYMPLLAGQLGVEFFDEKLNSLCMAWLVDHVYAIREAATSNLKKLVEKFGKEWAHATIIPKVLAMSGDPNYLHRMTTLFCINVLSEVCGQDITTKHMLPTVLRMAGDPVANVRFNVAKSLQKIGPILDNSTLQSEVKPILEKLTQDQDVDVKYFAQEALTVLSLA

Chain of PP2A (P67775 whole entry): as the sequence (P67775 whole entry) above

C=C1C(=O)N[C@H](C)C(=O)N[C@@H](CC(C)C)C(=O)N[C@@H](C(=O)O)[C@H](C)C(=O)N[C@@H](CCCNC(=N)N)C(=O)N[C@@H](/C=C/C(C)=C/[C@H](C)[C@H](Cc2ccccc2)OC)[C@H](C)C(=O)N[C@@H](C(=O)O)CCC(=O)N1C [MCLR, microcystin-LR] (R[Adda][d(γGlu)][NMeDha][dA]L[dAsp(3S-Me)]-OH; lactam N-7)
inhibition of the activity of PP2A [1]: potently inhibit

C=C1[C@@H](O)[C@@H]2O[C@]3(CC[C@H](/C=C/[C@@H](C)[C@@H]4CC(C)=C[C@@]5(O[C@H](C[C@@](C)(O)C(=O)O)CC[C@H]5O)O4)O3)CC[C@H]2O[C@@H]1[C@@H](O)C[C@H](C)[C@H]1O[C@@]2(CCCCO2)CC[C@H]1C [OA, okadaic acid]
inhibition of phosphatase activity of the assembled, purified PP2A core [2]: efficiently inhibited | pIC50 ([1]; PP2A, read-out: inhibitory constant (IC50)): ~10.00
